Laboratory results reported in US5723299A, “Somatostatin receptors” (Arch Development Corporation, priority 1995, dated 1998).
Where two headings read alike, the source gives them in different places.

How the values were obtained:
[1] = system: somatostatin receptor proteins (58-kDa, 42-kDa, 27-kDa); details: background; AtT-20 and GH3 cells; cited from earlier work
hGPR81 (SSTR1) [2] = biological target: T1, hGPR81 (SSTR1) (Homo sapiens, UniProt P30872); assay: Ca^2+ efflux in oocytes injected with hGPR81 RNA; format: cell-based; details: laevis oocytes injected with in vitro transcribed RNA
T1 construct: in vitro transcribed RNA injected into Xenopus laevis oocytes
Procedure: (§1) Since the presence of a short cytoplasmic loop connecting transmembrane segments M5-M6 is a feature of G protein-coupled receptors that bind peptide hormones and neuropeptides (E. M. Ross, 1990), peptides known to regulate hormone secretion from pancreatic islets were tested as ligands for hGPR81. Initial attempts to identify the ligand for hGPR81 by injecting RNA transcribed in vitro into fenopus laevis oocytes (Kayano et al., 1990) and assessing changes in basal or stimulated cAMP levels in response to […] [calcitonin-gene-related peptide, gastric inhibitory polypeptide, glucagon, glucagon-like peptide 1-(7-36 amide), and vasoactive intestinal peptide], or Ca^2+ efflux (Williams et al., 1988) (angiotensin II, bombesin, cholecystokinin, and vasopressin) were unsuccessful. The binding of radiolabeled peptides (galanin, glucagon and somatostatin) to COS-7 cells transiently expressing hGPR81 was attempted, as well.

hGPR81 (SSTR1) [3] = biological target: T1, hGPR81 (SSTR1); assay: Changes in basal or stimulated cAMP levels in oocytes injected with hGPR81 RNA; format: cell-based; details: laevis oocytes injected with in vitro transcribed RNA
Procedure: as §1

[4] = system: growth hormone, insulin, glucagon, gastric acid and pancreatic exocrine secretion; details: background, Brazeau et al., 1973, Wass, 1989, cited from earlier work
[5] = system: 58 to 60-kDa somatostatin receptor protein; details: background; rat brain and AtT-20 cells; cited from earlier work

T1 sequence (P30872 whole entry): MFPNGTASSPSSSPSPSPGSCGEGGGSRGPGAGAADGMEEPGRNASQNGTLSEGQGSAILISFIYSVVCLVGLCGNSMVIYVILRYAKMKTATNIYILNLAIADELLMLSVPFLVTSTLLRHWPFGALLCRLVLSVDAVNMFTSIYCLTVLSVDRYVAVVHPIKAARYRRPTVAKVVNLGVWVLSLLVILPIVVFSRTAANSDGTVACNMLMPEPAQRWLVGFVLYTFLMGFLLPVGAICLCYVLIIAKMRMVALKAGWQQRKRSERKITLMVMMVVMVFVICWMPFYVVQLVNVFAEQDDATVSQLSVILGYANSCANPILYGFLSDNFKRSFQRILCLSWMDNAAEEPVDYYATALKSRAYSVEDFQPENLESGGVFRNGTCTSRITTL

Compound: Nc1nc2c(ncn2[C@@H]2O[C@H](COP(=O)(O)OP(=O)(O)OP(=O)(O)O)[C@@H](O)[C@H]2O)c(=O)[nH]1 [GTP]
- inhibition of labeling of somatostatin receptor proteins [1]: sensitive to inhibition

Compound: NC(=O)CC[C@@H]1NC(=O)[C@H](Cc2ccccc2)NC(=O)[C@H](Cc2ccc(O)cc2)NC(=O)[C@@H](N)CSSC[C@@H](C(=O)N2CCC[C@H]2C(=O)N[C@@H](CCCN=C(N)N)C(=O)NCC(N)=O)NC(=O)[C@H](CC(N)=O)NC1=O [vasopressin]
- identification as ligand for hGPR81 by Ca^2+ efflux (hGPR81 (SSTR1) [2]): unsuccessful

Compound: angiotensin II: peptide known to regulate hormone secretion from pancreatic islets (DRVYIHPF)
- identification as ligand for hGPR81 by Ca^2+ efflux (hGPR81 (SSTR1) [2]): unsuccessful

Compound: bombesin
- identification as ligand for hGPR81 by Ca^2+ efflux (hGPR81 (SSTR1) [2]): unsuccessful

Compound: calcitonin-gene-related peptide
- identification as ligand for hGPR81 by changes in basal or stimulated cAMP levels (hGPR81 (SSTR1) [3]): unsuccessful

Compound: gastric inhibitory polypeptide: peptide known to regulate hormone secretion from pancreatic islets
- identification as ligand for hGPR81 by changes in basal or stimulated cAMP levels (hGPR81 (SSTR1) [3]): unsuccessful

Compound: glucagon-like peptide 1-(7-36 amide)
- identification as ligand for hGPR81 by changes in basal or stimulated cAMP levels (hGPR81 (SSTR1) [3]): unsuccessful

Compound: glucagon: peptide known to regulate hormone secretion from pancreatic islets
- identification as ligand for hGPR81 by changes in basal or stimulated cAMP levels (hGPR81 (SSTR1) [3]): unsuccessful

Compound: somatostatin-14
- inhibition of secretion [4]: relatively more selective for inhibition of glucagon and gastric acid secretion
- inhibition of secretion ([4]; listed as Somatostatin): potent inhibitor of growth hormone secretion
- inhibition of labeling of somatostatin receptor proteins [1]: sensitive to inhibition
- binding to 58 to 60-kDa receptor protein [5]: high affinity and specificity

Compound: somatostatin-28: bioactive form of somatostatin derived via tissue-specific proteolytic processing of prosomatostatin (Bachem)
- inhibition of secretion [4]: more specific inhibitor of growth hormone, insulin and pancreatic exocrine secretion
- binding to 58 to 60-kDa receptor protein [5]: high affinity and specificity

Compound: vasoactive intestinal peptide: peptide known to regulate hormone secretion from pancreatic islets
- identification as ligand for hGPR81 by changes in basal or stimulated cAMP levels (hGPR81 (SSTR1) [3]): unsuccessful
